From US10632127B2, “Targeted notch pathway inhibitors” (Hoffmann-La Roche Inc., priority 2015, dated 2020) come the findings set out here.

Where a name gives a salt, the structure may show the parent alone.

Series [1] deals with Notch signal transduction pathway. Nature of the series: In vitro Notch signal transduction pathway activity assay (DR215/F2 luciferase reporter). Type of series: cell-based, human. The protocol:
The compounds were dissolved in dimethyl sulfoxide (DMSO) at 10 mM stock solution, aliquoted and stored at −4° C. until use, then diluted in PBS or cell culture medium. In the experimental settings, controls containing increasing concentrations of DMSO, corresponding to the amount of DMSO of the diluted compounds were always included. For in vivo experiments, the compounds were dissolved in 0.9% NaCl, incubated 30 min at 40° C. and sonicated for 5 min.
The requirement of proteolytic activation of the prodrugs to inhibit Notch cleavage by the γ-secretase, was investigated using a reporter assay (Table 3). The DR215/F2 cell line expresses a reporter construct designed to monitor the activity of the Notch signal transduction pathway. The DR215/F2 cell line 39 carries two transgenes: the firefly luciferase reporter gene expressed under the control of the Gal4 promoter and the human Notch1 activator gene fused with the yeast Gal4 transcription factor. This assay confirmed that the prodrugs were able to inhibit γ-secretase and the activation of the Notch pathway. The DR215/F2 cell reporter assay was also used to determine the IC50 for blockade of the Notch pathway by all the compounds designed and prepared.
The values were determined using the 215/F2 reporter cell line for Notch activation by the γ-secretase. All values are the mean of at least 3 experiments.
The preparation and characterization of rat brain-derived EC219 endothelial cells have been described in Juillerat-Jeanneret, L. et al. In Vitro Cell. Dev. Biol. 1992, 28A, 537-543. These cells express high levels of APA and γ-GT activities and can be used for determining kinetics in living cells, and were chosen as APA- and γ-GT-positive representative cell models. EC219 cells were grown in DMEM medium containing 1 g/l glucose, 10% heat-inactivated fetal calf serum (FCS, EuroClone, UK) supplemented with 100 U/mL penicillin and 100 μg/mL streptomycin (P/S) on uncoated cell culture plastic ware. The HEK293 and HK2 human kidney cells are available from the ATCC (American Tissue Culture Collection, Manassas, Va., USA). HEK293 cells were grown on uncoated cell culture plastic ware in Iscove modified Dulbecco medium (IMDM, Life Technologies) containing 10% FCS and P/S. HK2 cells were grown on uncoated cell culture plastic ware in DMEM/F-12 GlutaMAX medium (Gibco) containing 5% FCS, P/S, 1% ITS (1.0 mg/ml bovine insulin, 0.55 mg/ml human transferrin and 0.5 μg/ml sodium selenite, Sigma-Aldrich) and 5 ng/ml hydrocortisone. The human HEK293-derived DR215/F2 embryonic kidney cell line, stably transfected with pFR Luc and APP-Notch Gal (plasmid DR215) as described in WO 2006/061136 A2 and Brockhaus, M. Neuroreport 1998 9, 1481-1486, were maintained using IMDM with 10% FCS supplemented with P/S and kept under double-selection with 150 μg/ml G-418 and 50 μg/ml hygromycin B on coated (1:100 Poly-L-lysine) cell culture plastic ware. In this assay, the Notch-Gal4 protein is bound to the cell membrane via its trans-membrane domain. The Notch intracellular domain is released by proteolytic cleavage mediated by the γ-secretase and moves to the cell nucleus where it activates the reporter luciferase gene transcript. Inhibition of γ-secretase thus decreases luciferase activity. Briefly, cultures were grown in 96-well microplates to 80% confluence; the cells were then washed in PBS and exposed to decreasing concentrations of the γ-secretase-inhibitor analogues in complete IMDM culture medium without red phenol at 37° C. for 19 h. Then 75 μl of supernatant from each well was removed and the luciferase activity was determined by adding 25 μl of Steady-Glo luciferase assay reagent (Promega).
(In general: Reporter assays use an easily measured gene product as a stand-in for the process of interest.)

The next series relates to EC219 cells. Nature of the series: Extracellular release of the γ-secretase inhibitor from prodrugs by EC219 endothelial cells. In kind it is in vitro ADME, rat. As to conditions: HEK293, 215/F2, HK2 and EC219 cells, 20 μM in PBS, 19 h. The protocol: FIG. 2A. Extracellular release of amine-SecrI (11a) metabolites for α-Glu- and γ-Glu-secretase inhibitor prodrugs. The prodrugs were added to the cells for 19 h, then the supernatants were harvested and analyzed for SecrI (8), amine-SecrI (11a), the prodrugs 13a, 13b, 15a, 15b and (for 13a, 15a) also the correponding deacetylated metabolites.
Cpd added: 20 μM in PBS, 19 h incubation. SecrI (8) is stable when added to cells for 19 h; free SecrI (8) was never detected from any prodrug.
The preparation and characterization of rat brain-derived EC219 endothelial cells have been described in Juillerat-Jeanneret, L. et al. In Vitro Cell. Dev. Biol. 1992, 28A, 537-543. These cells express high levels of APA and γ-GT activities and can be used for determining kinetics in living cells, and were chosen as APA- and γ-GT-positive representative cell models. EC219 cells were grown in DMEM medium containing 1 g/l glucose, 10% heat-inactivated fetal calf serum (FCS, EuroClone, UK) supplemented with 100 U/mL penicillin and 100 μg/mL streptomycin (P/S) on uncoated cell culture plastic ware. The HEK293 and HK2 human kidney cells are available from the ATCC (American Tissue Culture Collection, Manassas, Va., USA). HEK293 cells were grown on uncoated cell culture plastic ware in Iscove modified Dulbecco medium (IMDM, Life Technologies) containing 10% FCS and P/S. HK2 cells were grown on uncoated cell culture plastic ware in DMEM/F-12 GlutaMAX medium (Gibco) containing 5% FCS, P/S, 1% ITS (1.0 mg/ml bovine insulin, 0.55 mg/ml human transferrin and 0.5 μg/ml sodium selenite, Sigma-Aldrich) and 5 ng/ml hydrocortisone. […] Then 75 μl of supernatant from each well was removed and the luciferase activity was determined by adding 25 μl of Steady-Glo luciferase assay reagent (Promega).
A first screen of the different γ-secretase prodrugs was performed in vitro to determine the cleavage rate of each compound and ex-vivo in mouse kidney tissues. Extracellular release of the γ-secretase inhibitor from prodrugs by human kidney cells (HEK293, HEK293-derived Notch-reporter 215/F2 cells28,39 and HK2 cells) as well as the rat brain-derived EC219 endothelial cells which express very high levels of APA and γ-GT activities were evaluated for liberating active inhibitors SecrI (8) or amine-SecrI (11a) (FIG. 2A).
All samples were analyzed using protein precipitation followed by LC-MS/MS analysis. […] One μL of the supernatant was analyzed by LC/MS. […]

In a further series the target is γ-secretase (Homo sapiens, UniProt P49768). Put plainly: In vitro γ-secretase activity assay (cell-free). As to conditions: HEK293 membrane fraction, recombinant APP substrate, Abeta ELISA. In kind it is biochemical. Here is the method: The γ-secretase activity of the γ-secretase inhibiting alcohols of formula (A) of present invention was determined in cell-free in vitro assays where e.g., a cell lysate containing the γ-secretase complex is incubated with a suitable β-Amyloid Precursor Protein (APP)-derived substrate which is cleaved to the Abeta peptides. The amount of produced peptides can be determined with specific ELISA assays. Cell lines of neuronal origin secrete Abeta peptides which can be measured with the specific ELISA assay. Treatment with compounds which inhibit γ-secretase leads to a reduction of secreted Abeta thus providing a measure of inhibition.
The in vitro assay of γ-secretase activity uses a HEK293 membrane fraction as a source of γ-secretase and a recombinant APP substrate. Latter consist of the C-terminal 100 amino acids of human APP fused to a 6×Histidin tail for purification which is expressed in E. coli in a regulatable expression vector, e.g. pEt15. This recombinant protein corresponds to the truncated APP fragment which results after […] of the extracellular domain and which constitutes the γ-secretase substrate. […] The Abeta peptides which are produced by γ-secretase cleavage of the substrate are detected by specific ELISA assays as described (Brockhaus M et al, Neuroreport 9(7), 1481-1486 (1998).

For the molecule `C[C@H]1Oc2ccc(F)cc2N(CCOC(=O)NCCNC(=O)CC[C@H](N)C(=O)O)C(=O)[C@H]1NC(=O)[C@@](C)(O)C(=O)NCC(F)(F)C(F)(F)F` [Compound 13b, (S)-2-Amino-5-(2-((2-((2R,3S)-7-fluoro-3-((S)-2-hydroxy-2-methyl-3-oxo-3-(2,2,3,3,3-pentafluoropropylamino)propanamido)-2-methyl-4-oxo-3,4-dihydrobenzo[b][1,4]oxazepin-5(2H)-yl)ethoxy)carbonylamino)ethylamino)-5-oxopentanoic acid hydrochloride], the “IC50 for blockade of the Notch pathway, range in words” value in series [1] (DR215/F2 cell reporter assay) is recorded as “μM range”. Also, in series [1] (Homo sapiens, 215/F2 reporter cell line, 19 h, mean of at least 3 experiments), the half-inhibitory concentration (IC50) came to 1090 nM. Also, in the series on EC219 cells, the “hydrolysis by γ-GT” value is reported as “also not hydrolyzed by γ-GT”.

As for `C[C@H]1Oc2ccc(F)cc2N(CCO)C(=O)[C@H]1NC(=O)C(C)(C)C(=O)NCC(F)(F)C(F)(F)F` [Example 53, N-[(6R,7S)-2-Fluoro-9-(2-hydroxy-ethyl)-6-methyl-8-oxo-6,7,8,9-tetrahydro-5-oxa-9-aza-benzocyclohepten-7-yl]-2,2-dimethyl-N′-(2,2,3,3,3-pentafluoro-propyl)-malonamide], at γ-secretase, the IC50 is 90 nM.

Usually IC50 stands for the concentration that gives 50% inhibition.
